Earlier results as cited in patent publication US8945630B2, “Method of producing and applications of composition of hypochlorous acid” (Aquilabs S.A., priority 2008, dated 2015).

Details: at 25° C.

For `OCl` [Hypochlorous acid], the dissociation constant is given as 2.9×10^−8.
